In US8048869B2, “Pharmaceutical composition for use in hormone replacement therapy” (Pantarhei Bioscience B.V., priority 2001, dated 2011):

Columns and labels:
[1] = tested on: OVX-rats; assay: pQCT densitometry of proximal tibiae, ovariectomized aged rat osteoporosis model; format: in vivo; parameters: anti-resorptive activity compared with positive control EE: dose or concentration left out as unconfirmed; conditions: po, 4 weeks; for Mean Total Bone Mineral Area / Mean Total Bone Mineral Content / Mean Total Bone Mineral Density / Mean Trabecular Bone Mineral Area / Mean Trabecular Bone Mineral Content / Mean Trabecular Bone Mineral Density: proximal tibiae
Protocol: The ovariectomized aged rat was used as a model for the human disease osteoporosis. This is an established animal model, recommended by the United States Food and Drug Administration (FDA), to evaluate and assess potential agents for osteoporosis prevention and therapy. The anti-resorptive efficacy of estetrol (E4) was tested by ex vivo measuring total and trabecular bone mineral density and bone strength after 4 weeks of treatment at necropsy. 17α-ethinyl-estradiol (EE) and vehicle (1% ethanol/arachidis oil) served as controls in this bioassay.
Three months old female Sprague-Dawley rats were either sham-operated (Sham) or ovariectomized (OVX) one day prior to commencement of the dosing study. Animals were anesthetized using a ketamine/xylazine anesthetic mixture and underwent a bilateral ovariectomy or were sham-treated. A section of hair on the dorsal surface was shaved and an incision made overlying the lumbar region of the spine. The skin was separated from the underlying fascia so that a second incision could be made through the abdominal musculature approximately caudal to the kidneys. The ovaries were then exteriorized and removed and the musculature was closed with a single suture. The skin incision was closed using surgical staples.
Ten animals per treatment group were orally dosed once per day for four consecutive weeks. […] Vehicle control was daily administered to one group of OVX-animals and sham-operated rats. After treatment, anesthetized rats were subjected to cardiac puncture and asphyxiated by CO2 inhalation. Tibiae and femura were removed, cleaned of soft-tissue and fixed and stored in 70% ethanol/saline at 4° C. (tibia) or saline at 4° C. (femura) until fuirther analysis.
Ex vivo peripheral Quantitative Computed Tomography (pQCT) was performed on the excised left tibiae using a Stratec XCT-RM and associated software (Stratec Medizintechnik GmbH, Pforzheim; Germany, software version 5.40). The scans were performed at 12% of the total length from the proximal end of the tibiae. The positions were verified using scout views and one 0.5-mm slice perpendicular to the long axis of the tibial shaft was acquired from each site. The scans were analyzed using a threshold for delineation of the external boundary. The total and trabecular bone mineral content, area and density at each site were determined. Furthermore, pQCT data for mean total bone mineral density are depicted in FIG. 1.

[2] = molecular target: T1, rat uterine nuclear estrogen receptor (Rattus norvegicus, UniProt P06211); conditions: cited from earlier work
T1 construct: host or cells: rat uterus (cytosol and nuclear fractions), Martucci et al. 1976
T1 sequence (P06211 1-600): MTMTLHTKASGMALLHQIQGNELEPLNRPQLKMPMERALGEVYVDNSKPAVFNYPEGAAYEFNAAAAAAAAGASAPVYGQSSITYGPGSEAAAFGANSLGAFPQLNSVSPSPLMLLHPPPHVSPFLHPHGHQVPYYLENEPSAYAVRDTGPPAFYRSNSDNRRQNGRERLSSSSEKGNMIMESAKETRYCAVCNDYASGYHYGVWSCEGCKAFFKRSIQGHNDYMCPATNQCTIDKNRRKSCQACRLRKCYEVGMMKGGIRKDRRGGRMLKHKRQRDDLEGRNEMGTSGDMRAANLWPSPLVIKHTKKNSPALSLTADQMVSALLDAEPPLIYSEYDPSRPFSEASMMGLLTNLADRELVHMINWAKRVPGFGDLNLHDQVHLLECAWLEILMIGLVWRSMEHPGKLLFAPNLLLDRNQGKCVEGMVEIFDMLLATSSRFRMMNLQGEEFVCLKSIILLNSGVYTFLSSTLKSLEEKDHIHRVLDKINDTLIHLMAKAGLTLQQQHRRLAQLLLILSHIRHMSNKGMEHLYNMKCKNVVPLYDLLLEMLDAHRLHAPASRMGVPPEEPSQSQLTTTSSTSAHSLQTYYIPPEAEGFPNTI

C[C@]12CC[C@@H]3c4ccc(O)cc4CC[C@H]3[C@@H]1[C@@H](O)[C@@H](O)[C@@H]2O [E4, 1,3,5 (10)-estratrien-3,15α,16α,17β-tetrol]
Mean Total Bone Mineral Area ([1]; 0.1 mg/kg/day): 14.41 mm^2 | Mean Total Bone Mineral Content ([1]; 0.1 mg/kg/day): 8.46 mg/mm | Mean Total Bone Mineral Density ([1]; 0.1 mg/kg/day): 588.62 mg/mL | Mean Trabecular Bone Mineral Area ([1]; 0.1 mg/kg/day): 6.48 mm^2 | Mean Trabecular Bone Mineral Content ([1]; 0.1 mg/kg/day): 0.96 mg/mm | Mean Trabecular Bone Mineral Density ([1]; 0.1 mg/kg/day): 145.46 mg/mL | Mean Total Bone Mineral Area ([1]; 0.5 mg/kg/day): 14.80 mm^2 | Mean Total Bone Mineral Content ([1]; 0.5 mg/kg/day): 9.74 mg/mm | Mean Total Bone Mineral Density ([1]; 0.5 mg/kg/day): 660.57 mg/mL | Mean Trabecular Bone Mineral Area ([1]; 0.5 mg/kg/day): 6.65 mm^2 | Mean Trabecular Bone Mineral Content ([1]; 0.5 mg/kg/day): 1.60 mg/mm | Mean Trabecular Bone Mineral Density ([1]; 0.5 mg/kg/day): 243.31 mg/mL | anti-resorptive activity compared with positive control EE ([1]; highest dose): equivalent to the effect seen with the positive control EE | relative binding affinity, 17β-estradiol = 100% [2]: 0.3%
